Data reported in PMC5964550 (Contrast Media & Molecular Imaging, 2018).

Legend:
OATP2B1 (SLCO2B1) = test system: OATP2B1 (SLCO2B1); set-up: method as in earlier work; details: in vitro; cited from earlier work
OATP1B1 (SLCO1B1) = test system: OATP1B1 (SLCO1B1); set-up: method as in earlier work; details: in vitro; cited from earlier work
OATP1B3 (SLCO1B3) = test system: OATP1B3 (SLCO1B3); set-up: method as in earlier work; details: in vitro; cited from earlier work
[1] = test system: P-gp at the canalicular membrane; set-up: method as in PMID 12576431; details: humans; cited from earlier work
[2] = [11C]metoclopramide plasma kinetics and metabolism in rats (radio-HPLC); format: in vivo; details: rat
Excerpt: […]. […] […].

[3] = rat, iv
[4] = cited from earlier work
human P-gp = test system: human P-gp; set-up: method as in PMID 17962372, PMID 15502009; details: cited from earlier work
rodent P-gp = test system: rodent P-gp; set-up: method as in PMID 17962372, PMID 15502009; details: cited from earlier work
P-gp = details: mice, cited from earlier work
[5] = test system: cytochrome P450 2D6 (CYP2D6); details: cited from earlier work

COc1cc2c(cc1OC)CN(CCc1ccc(NC(=O)c3cc(OC)c(OC)cc3NC(=O)c3cnc4ccccc4c3)cc1)CC2 [tariquidar]
inhibitor of OATP2B1 (OATP2B1 (SLCO2B1)): inhibitor
inhibitor of OATP1B1 (OATP1B1 (SLCO1B1)): not
inhibitor of OATP1B3 (OATP1B3 (SLCO1B3)): not
effect on liver exposure to [99mTc]sestamibi [1]: enhance

CCN(CC)CCNC(=O)c1cc(Cl)c(N)cc1O[11CH3] [[^11C]metoclopramide]
increase in AUCplasma, pharmacologic dose vs tracer dose ([2]; in vivo): 2.1 fold
proportion of parent [11C]metoclopramide in plasma, pharmacologic dose vs tracer dose ([2]; metoclopramide 3 mg/kg, calculated from ref 14): higher
impact of P-gp inhibition on plasma clearance and metabolism ([2]; not told, 8 mg/kg): did not impact
AUCliver (area under the time-activity curve of radioactivity in the liver, 0 to 30 min) ([3]; male, Wistar, in vivo, 3 mg/kg): 42.9 ± 13.8 SUV·min
effect of P-gp inhibition on liver AUC ([3]; not told, 8 mg/kg): did not significantly impact

CCN(CC)CCNC(=O)c1cc(Cl)c(N)cc1OC [metoclopramide]
excreted unchanged in urine ([4]; after intravenous administration): 19%
lower plasma clearance in hepatic impairment (liver cirrhosis) ([4]; liver cirrhosis): 50%
substrate of human P-gp (human P-gp): substrate
substrate of rodent P-gp (rodent P-gp): substrate
influence of P-gp deficiency on metoclopramide PK (P-gp; 3 mg/kg, over 5 hours): no influence
effect of P-gp deficiency on brain distribution (P-gp): enhance
impact of P-gp deficiency on plasma pharmacokinetics (P-gp): no or negligible impact
substrate of CYP2D6 [5]: substrate
